{"source": "ChEMBL document CHEMBL1134998", "about": "“A novel synthesis of 7-aryl-8-fluoro-pyrrolo[1,2-a]pyrimid-4-ones as potent, stable GnRH receptor antagonists” (Bioorg Med Chem Lett, 2002)", "biological_target": "T1, Gonadotropin-releasing hormone receptor (Homo sapiens, UniProt P30968)", "T1 sequence (P30968 whole entry)": "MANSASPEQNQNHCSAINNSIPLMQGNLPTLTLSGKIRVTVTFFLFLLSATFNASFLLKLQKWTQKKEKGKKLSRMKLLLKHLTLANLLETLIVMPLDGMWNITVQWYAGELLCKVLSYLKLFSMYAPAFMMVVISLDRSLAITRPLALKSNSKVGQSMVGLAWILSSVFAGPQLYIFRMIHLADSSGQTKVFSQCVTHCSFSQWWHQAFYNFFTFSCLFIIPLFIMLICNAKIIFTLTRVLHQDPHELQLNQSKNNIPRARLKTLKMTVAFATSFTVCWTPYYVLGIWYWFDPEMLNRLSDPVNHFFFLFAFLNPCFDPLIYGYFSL", "assay": "Binding affinity towards human Gonadotropin-releasing hormone receptor"}
{"compound": "CCOC(=O)c1cn(Cc2ccccc2F)c2c(F)c(-c3cccc(OC)c3)c(CN(C)CCc3ccccn3)n2c1=O", "values": [{"measurement": "Ki", "value": 200, "unit": "nM"}]}
{"compound": "CCOC(=O)c1cn(Cc2ccccc2F)c2c(F)c(-c3cccc(OC)c3)c(CN(C)Cc3ccccc3)n2c1=O", "values": [{"measurement": "Ki", "value": 2600, "unit": "nM"}]}
{"compound": "CCOC(=O)c1cn(Cc2ccccc2F)c2c(F)c(-c3ccc(OCC(C)C)cc3)c(CN(C)CCc3ccccn3)n2c1=O", "values": [{"measurement": "Ki", "value": 9, "unit": "nM"}]}
{"compound": "CCOC(=O)c1cn(Cc2ccccc2F)c2c(F)c(-c3ccc(OCC(C)C)cc3)c(CN(C)Cc3ccco3)n2c1=O", "values": [{"measurement": "Ki", "value": 92, "unit": "nM"}]}
{"compound": "CCOC(=O)c1cn(Cc2ccccc2F)c2c(F)c(-c3ccc(OCC(C)C)cc3)c(CN(C)Cc3ccccc3)n2c1=O", "values": [{"measurement": "Ki", "value": 42, "unit": "nM"}]}
{"compound": "CCOC(=O)c1cn(Cc2ccccc2F)c2c(F)c(-c3cccc(OC)c3)c(CN(C)Cc3ccco3)n2c1=O", "values": [{"measurement": "Ki", "value": 24000, "unit": "nM"}]}
